From article PMC10708028, “Target Screen of Anti-Hyperuricemia Compounds from Cortex Fraxini In Vivo Based on ABCG2 and Bioaffinity Ultrafiltration Mass Spectrometry” (Molecules, 2023)

Biological target: T1, ABCG2 (Homo sapiens, UniProt Q9UNQ0)
T1 construct: Recombinant ABCG2
T1 sequence (Q9UNQ0 1-655): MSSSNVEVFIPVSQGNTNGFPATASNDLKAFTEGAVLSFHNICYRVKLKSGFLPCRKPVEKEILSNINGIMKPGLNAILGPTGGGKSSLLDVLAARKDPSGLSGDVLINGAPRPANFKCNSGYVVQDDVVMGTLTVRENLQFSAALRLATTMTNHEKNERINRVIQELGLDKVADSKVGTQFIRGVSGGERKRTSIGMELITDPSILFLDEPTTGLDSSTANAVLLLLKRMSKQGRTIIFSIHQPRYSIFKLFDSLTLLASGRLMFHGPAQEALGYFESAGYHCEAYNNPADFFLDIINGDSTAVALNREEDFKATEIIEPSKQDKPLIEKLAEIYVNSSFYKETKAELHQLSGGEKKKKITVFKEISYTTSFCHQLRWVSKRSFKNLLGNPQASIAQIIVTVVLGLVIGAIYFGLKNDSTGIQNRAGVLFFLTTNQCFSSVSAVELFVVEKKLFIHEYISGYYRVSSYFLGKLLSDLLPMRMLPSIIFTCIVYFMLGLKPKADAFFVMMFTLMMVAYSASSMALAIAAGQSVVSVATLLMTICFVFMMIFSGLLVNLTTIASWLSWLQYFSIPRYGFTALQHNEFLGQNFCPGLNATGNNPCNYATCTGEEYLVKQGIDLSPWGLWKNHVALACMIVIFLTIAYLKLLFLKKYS
Format: binding

Kd: 141 µM
Structure (SMILES): COc1cc2ccc(=O)oc2c(O[C@@H]2O[C@H](CO)[C@@H](O)[C@H](O)[C@H]2O)c1O [fraxin]
